Source: patent publication US9682993B2, “Anticancer compounds” (ST. JUDE CHILDREN'S RESEARCH HOSPITAL, priority 2012, dated 2017)

How the values were obtained:
[1] = tested on: MDM2 alternative splicing in Rh18 cells; test: In vitro alternative splicing assay (MDM2, RT-PCR); assay type: cell-based; conditions: Rh18, 8 h, PCR (FIG. 9)
Experimental: Briefly, following an 8 h exposure of exponentially growing cells to drug, total RNA was isolated using TRIzol reagent (Invitrogen, Carlsbad, Calif.). Total RNA (1 μg) was used to convert the mRNA to cDNA by using random primers, Oligo(dT)16 and Omniscript Reverse Transcription Kit (Qiagen, Germantown, Md.). PCR analyses were performed using specific oligonucleotides (see Table I) and standard amplification protocols. PCR products were separated by agarose gel electrophoresis, visualized by ethidium bromide staining on an UV transilluminator, and recorded. PCR band sizes were calculated by comparing them to the standard EZ Load 100-bp PCR Molecular Ruler (BioRad Laboratories, Hercules, Calif.).

[2] = tested on: SK-MEL-2 xenograft tumors; test: In vivo tumor xenograft study; parameters: species or system C.B-17 scid mice
Experimental: Xenograft tumors were first established from an SK-MEL-2 cell culture at the St. Jude Children's Research Hospital Xenograft Core. After these tumors were established as a mouse xenograft model, they were routinely maintained in the C.B-17 scid strain (Taconic Farms, Germantown, N.Y.). Experimental animals were prepared by transplanting small pieces of dissected tumors from donor animals into recipient mice. All animal studies were performed in accordance with the St. Jude Children's Research Hospital Animal Care and Use Committee. SK-MEL-2 xenograft tumors were transplanted into male C.B-17 scid mice on Day −21. On Days −7 to −5, a jugular vein catheter was surgically implanted into each mouse. […] Infusions were carried out by placing the animals inside a continuous infusion system (Instech Laboratories, Plymouth Meeting, Pa.), and delivering the vehicle or drug solution via the jugular catheter at a rate of 4 μL/min with a SP230iw syringe pump (WPI, Sarasota, Fla.). […] Tumors were continuously measured during and after infusion periods, 5 times per week (weekdays). Tumor volumes were determined based on the following equation: Tuvol=(δ1/2+δ2/2)^1.5708, where δ1 and δ2 are diameters measured with a caliper at right angles of each other. The size of the tumors ranged from 0.2 to 0.5 cm^3 at the times the infusions were initiated.
The efficacy of compound 20 in the inhibition of tumor growth in mice was evaluated using the methods as described herein above. Thus, SK-MEL-2 tumors were transplanted into male C.B-17 scid mice. The animals were subsequently infused over 4 h with either vehicle (8 mice) or compound 20 (9 mice) for 5 consecutive days.

[3] = In vivo plasma pharmacokinetic study in C.B-17 scid mice
Experimental: A sensitive and specific LC-MS/MS assay was developed for quantification of compound 20 in plasma for application in a murine pharmacokinetic study. Calibrators and quality controls (QCs) were prepared using 100% methanol stocks in blank C.B-17 scid mouse plasma with lithium heparin anticoagulant. The calibrators and QCs, 25 μL each, were stored briefly on wet ice and then protein precipitated with 75 μL of ice cold compound 19 internal standard processing solution. The supernatants, 100 μL of each, were mixed with 100 μL of methanol-10 mM ammonium bicarbonate, pH 7.0 (50:50 v/v) and injected from the 96-well plate to the LC-MS/MS system via a CTC HTS PAL autosampler. Chromatography was performed using a Phenomenex Synergi Fusion-RP C18 column ([…], 50 mm×2.0 mm) maintained at 35° C., and a linear gradient mobile phase consisting of water:methanol:acetonitrile ([…], v/v) to methanol: acetonitrile (70:30, v/v) and back. […] Detection was performed with an AB Sciex 5500 QTRAP LC-MS/MS System equipped with a Turbo IonSpray® source using the positive multiple-reaction monitoring (MRM) mode. The transitions monitored included m/x 475->288 for compound 20 and m/x 489->400 for compound 19, which served as an internal standard. The lower limit of quantitation was 1 ng/mL (5× S:N ration, <20% CV); intra-run precision and accuracy was ≦11.2% CV and 96.5-103%, respectively. The calibration curve was linear from 1 to 500 ng/mL (R=0.9968) and QC samples above the limit of quantitation (500 ng/mL) were precisely and accurately diluted into the linear range with blank C.B-17 scid mouse plasma.
A plasma PK study of compound 20 in male C.B-17 scid mice receiving a continuous i.v. infusion of compound 20 (100 mg/kg over 30 min) was performed. Compound 20 was formulated in 15% Captisol®/50 mM Na2HPO4/NaH2PO4 solution at 3 mg/mL and infused with a syringe pump at a rate of 20 μL/min via a jugular vein catheter. Blood samples (1 to 2 samples per mouse, 18 samples from 11 total mice) were collected by either retro-orbital sinus bleeding or terminal cardiac puncture at the following times after the start of infusion: 7.5, 15, 30 (end of infusion), 35, 45, and 60 minutes. The samples were immediately processed to plasma by centrifugation at 2000 g for 5 min; the resultant volume of plasma was then protein precipitated with a 3:1 volume of ice cold IS processing solution. The supernatants were immediately placed on dry ice and then stored at −80° C. until analysis.
The concentration-time data for compound 20 in mice was analyzed using the MLEM population estimation method as implemented in ADAPTS (D'Argenio, D. Z. and Schumitzky, A., Wang ADAPT 5 User's Guide: Pharmacokinetic/Pharmacodynamic Systems Analysis Software; Biomedical Simulations Resource: Los Angeles, Calif., USA, 2009). A linear, one-compartment PL model was fit to the data, and the adequacy of the fit was assessed by the −2 log likelihood value, visual predictive checks, and the residual plots. Inter-individual variability in plasma clearance (CL) and volume of distributions (V) was assumed to be log-normally distributed with the covariance matrix constrained to diagonal elements. The residual, intra-individual error was described using an additive and proportional model, with the additive term fixed to the lower limit of quantitation of the LC-MS/MS assay (LLOQ, 1 ng/mL). Beal's M3 method was used to handle data that was below the LLOQ (Beal, S. L., J. Pharmacokinet. Pharmacodyn. 2001, 28, 481). Other secondary parameters, such as the area under the plasma concentration-time curve to infinity (AUCinf), maximum plasma concentration (Cmax), and the time of Cmax (Tmax) were derived for the population using standard formulae (Pharmacokinetics, Second Edition; Gibaldi, M.; Perrier, D., Eds.; 2nd ed.; CRC Press, 1982).

[4] = 50 mg/kg over 4 h, once a day for 5 days
[5] = male, C.B-17 scid, mouse, plasma, iv, 100 mg/kg, i.v. infusion over 30 min, population

## CNC(=O)O[C@@H](C)/C=C\C(=O)N[C@H]1CC[C@@H](C/C=C(C)/C=C/[C@@H]2C[C@]3(CO3)CC(C)(C)O2)CC1 [compound 20, (S,Z)-5-(((1R,4R)-4-((2E,4E)-5-((3R,5S)-7,7-Methyl-1,6-Dioxaspiro[2.5]Octan-5-Yl)-3-Methylpenta-2,4-Dien-1-Yl)Cyclohexyl)Amino)-5-Oxopent-3-En-2-Yl Methylcarbamate]
[1]
  alternative MDM2 splicing: induction of alternative MDM2 splicing
[2]; [4]
  inhibition of tumor growth during the infusion period: 100%
  inhibition of tumor growth subsequent to the dosing period: significant inhibition
[2]; infusion over 4 h for 5 consecutive days
  fatalities or behavioral changes versus control infusion: No differences in fatalities or behavioral changes
[3]; i.v. infusion over 30 min
  mean CL relative to hepatic blood flow: 3 fold
[3]; i.v. infusion over 30 min, population mean
  V: 0.877 L/kg
[3]; [5]
  AUC(0-inf): 12.5 µM·h
  Cmax: 24.1 µM
  Tmax: 30 min
[3]; male, C.B-17 scid, mouse, plasma, iv, 100 mg/kg, i.v. infusion over 30 min, population mean terminal elimination half-life
  half-life: 2.18 min
[3]; male, C.B-17 scid, mouse, plasma, iv, i.v. infusion over 30 min (100 mg/kg, 50 mg/kg elsewhere in the source), population mean
  clearance: 280 mL/min/kg
[3]; target far exceeded and maintained for an adequate time period
  plasma concentration versus target plasma concentration: > 0.5 µM
